Measurements reported in patent US12685312B2, “Sulfonamide apyrase inhibitors” (Texas Crop Science, Inc., priority 2022, dated 2026).

System: apyrase
Assay: Screen for apyrase inhibitors (Method 1, in vitro phosphate-release absorbance assay)
Assay type: biochemical
Details: inhibitor conc at 1 mM stock, 1 hr room temperature, absorbance 630 nm; rounded average of two assay results
Method in brief: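 Phosphate-release colorimetric assay (Windsor method) in 60 mM Hepes, 3 mM MgCl2, 3 mM CaCl2, 3 mM ATP, pH 6.5, with compound or DMSO control added. Released phosphate developed with ammonium molybdate and ascorbic acid/TCA, then stopped with citrate/acetic acid.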

Compound	% Inhibition of Apyrase
O=C(Nc1ccc(F)c(Cl)c1)c1cccc(S(=O)(=O)Nc2ccc(F)cc2)c1 [I-450, N-(3-chloro-4-fluorophenyl)-3-(N-(4-fluorophenyl)sulfamoyl)benzamide]	61%
O=C(Nc1ccc2c(c1)OCO2)c1cccc(S(=O)(=O)N2CCc3ccccc32)c1 [I-451, N-(benzo[d][1,3]dioxol-5-yl)-3-(indolin-1-ylsulfonyl)benzamide]	60%
Cc1ccc(NC(=O)c2cccc(S(=O)(=O)N3CCc4ccccc43)c2)cc1C [I-452, N-(3,4-dimethylphenyl)-3-(indolin-1-ylsulfonyl)benzamide]	60%
Cc1ccc(NC(=O)c2ccc(Cl)c(S(=O)(=O)N3CCc4ccccc43)c2)cc1 [I-453, 4-chloro-3-(indolin-1-ylsulfonyl)-N-(p-tolyl)benzamide]	60%
COc1ccc(NC(=O)c2cccc(S(=O)(=O)N3CCc4ccccc43)c2)cc1 [I-454, 3-(indolin-1-ylsulfonyl)-N-(4-methoxyphenyl)benzamide]	60%
Cc1c(Cl)cccc1NC(=O)c1cccc(S(=O)(=O)N2CCc3ccccc32)c1 [I-455, N-(3-chloro-2-methylphenyl)-3-(indolin-1-ylsulfonyl)benzamide]	60%
NC(=O)c1cccc(NC(=O)c2cccc(S(=O)(=O)N3CCc4ccccc43)c2)c1 [I-456, N-(3-carbamoylphenyl)-3-(indolin-1-ylsulfonyl)benzamide]	60%
O=C(c1cccc(S(=O)(=O)N(Cc2ccccc2)c2cccc(C(F)(F)F)c2)c1)N1CCc2ccccc21 [I-457, N-benzyl-3-(indoline-1-carbonyl)-N-(3-(trifluoromethyl)phenyl)benzenesulfonamide]	60%
CC1Cc2ccccc2N1S(=O)(=O)c1cccc(C(=O)Nc2cccc(S(N)(=O)=O)c2)c1 (stereo not shown) [I-458, 3-((2-methylindolin-1-yl)sulfonyl)-N-(3-sulfamoylphenyl)benzamide]	60%
Cc1ccc(NS(=O)(=O)c2ccc(Cl)c(C(=O)N3CCc4ccccc43)c2)cc1C [I-459, 4-chloro-N-(3,4-dimethylphenyl)-3-(indoline-1-carbonyl)benzenesulfonamide]	60%
COc1ccc(NS(=O)(=O)c2cccc(C(=O)Nc3ccc(OC(F)F)cc3)c2)cc1 [I-460, N-(4-(difluoromethoxy)phenyl)-3-(N-(4-methoxyphenyl)sulfamoyl)benzamide]	60%
COc1ccccc1NS(=O)(=O)c1cccc(C(=O)Nc2c(C)nc(O)nc2O)c1 [I-461, N-(2,4-dihydroxy-6-methylpyrimidin-5-yl)-3-(N-(2-methoxyphenyl)sulfamoyl)benzamide]	59%
N#Cc1cccc(NC(=O)c2ccc(Cl)c(S(=O)(=O)N3CCc4ccccc43)c2)c1 [I-462, 4-chloro-N-(3-cyanophenyl)-3-(indolin-1-ylsulfonyl)benzamide]	59%
O=C(Nc1ccccc1OC(F)F)c1ccc(Cl)c(S(=O)(=O)N2CCc3ccccc32)c1 [I-463, 4-chloro-N-(2-(difluoromethoxy)phenyl)-3-(indolin-1-ylsulfonyl)benzamide]	59%
CC1Cc2ccccc2N1C(=O)c1cccc(S(=O)(=O)N(C)c2cccc(Cl)c2)c1 (stereo not shown) [I-464, N-(3-chlorophenyl)-N-methyl-3-(2-methylindoline-1-carbonyl)benzenesulfonamide]	59%
CC1Cc2ccccc2N1S(=O)(=O)c1cccc(C(=O)N2CCCc3ccccc32)c1 (stereo not shown) [I-465, (3,4-dihydroquinolin-1(2H)-yl)(3-((2-methylindolin-1-yl)sulfonyl)phenyl)methanone]	59%
Cc1ccccc1NC(=O)c1cccc(S(=O)(=O)N2c3ccccc3CC2C)c1 (stereo not shown) [I-466, 3-((2-methylindolin-1-yl)sulfonyl)-N-(o-tolyl)benzamide]	59%
COc1ccccc1NC(=O)c1cccc(S(=O)(=O)N2CCc3ccccc32)c1 [I-467, 3-(indolin-1-ylsulfonyl)-N-(2-methoxyphenyl)benzamide]	59%
CSc1cccc(NC(=O)c2cccc(S(=O)(=O)N3c4ccccc4CC3C)c2)c1 (stereo not shown) [I-468, 3-((2-methylindolin-1-yl)sulfonyl)-N-(3-(methylthio)phenyl)benzamide]	59%
CC1Cc2ccccc2N1S(=O)(=O)c1cccc(C(=O)Nc2cc(F)ccc2F)c1 (stereo not shown) [I-469, N-(2,5-difluorophenyl)-3-((2-methylindolin-1-yl)sulfonyl)benzamide]	59%
O=C(Nc1ccc(Br)cc1F)c1cccc(S(=O)(=O)N2CCc3ccccc32)c1 [I-470, N-(4-bromo-2-fluorophenyl)-3-(indolin-1-ylsulfonyl)benzamide]	59%
COc1ccc(S(=O)(=O)N2CCc3ccccc32)cc1C(=O)Nc1ccc(Br)c(C)c1 [I-471, N-(4-bromo-3-methylphenyl)-5-(indolin-1-ylsulfonyl)-2-methoxybenzamide]	59%
O=C(Nc1ccc(F)c(F)c1)c1cccc(S(=O)(=O)N2CCc3ccccc32)c1 [I-472, N-(3,4-difluorophenyl)-3-(indolin-1-ylsulfonyl)benzamide]	59%
COc1ccc(C)cc1NC(=O)c1cccc(S(=O)(=O)N2CCc3ccccc32)c1 [I-473, 3-(indolin-1-ylsulfonyl)-N-(2-methoxy-5-methylphenyl)benzamide]	59%
O=C(c1cc(S(=O)(=O)Nc2cccc(C(F)(F)F)c2)ccc1Cl)N1CCCc2ccccc21 [I-474, 4-chloro-3-(1,2,3,4-tetrahydroquinoline-1-carbonyl)-N-(3-(trifluoromethyl)phenyl)benzenesulfonamide]	59%
O=C(c1cccc(S(=O)(=O)Nc2cccc(C(F)(F)F)c2)c1)N1CCc2ccccc21 [I-475, 3-(indoline-1-carbonyl)-N-(3-(trifluoromethyl)phenyl)benzenesulfonamide]	59%
CC1Cc2ccccc2N1S(=O)(=O)c1cccc(C(=O)Nc2ccccc2OC(F)(F)F)c1 (stereo not shown) [I-476, 3-((2-methylindolin-1-yl)sulfonyl)-N-(2-(trifluoromethoxy)phenyl)benzamide]	58%

Continued, values first:

% Inhibition of Apyrase	Compound
58%	CN(c1ccccc1)S(=O)(=O)c1cc(C(=O)N2CCc3cc([N+](=O)[O-])ccc32)ccc1Cl [I-477, 2-chloro-N-methyl-5-(5-nitroindoline-1-carbonyl)-N-phenylbenzenesulfonamide]
58%	O=C(Nc1ccc(S(=O)(=O)NC2CC2)cc1)c1cccc(S(=O)(=O)N2CCc3ccccc32)c1 [I-478, N-(4-(N-cyclopropylsulfamoyl)phenyl)-3-(indolin-1-ylsulfonyl)benzamide]
58%	COc1ccc(N(C)S(=O)(=O)c2cccc(C(=O)Nc3ccc4c(c3)OCO4)c2)cc1 [I-479, N-(benzo[d][1,3]dioxol-5-yl)-3-(N-(4-methoxyphenyl)-N-methylsulfamoyl)benzamide]
58%	CC(=O)Nc1ccc(NC(=O)c2cccc(S(=O)(=O)N3CCc4ccccc43)c2)cc1 [I-480, N-(4-acetamidophenyl)-3-(indolin-1-ylsulfonyl)benzamide]
58%	Cc1ccc(N(C)S(=O)(=O)c2cccc(C(=O)N3c4ccccc4CC3C)c2)cc1 (stereo not shown) [I-481, N-methyl-3-(2-methylindoline-1-carbonyl)-N-(p-tolyl)benzenesulfonamide]
58%	CN(c1ccccc1)S(=O)(=O)c1cccc(C(=O)N2CCCc3ccccc32)c1 [I-482, N-methyl-N-phenyl-3-(1,2,3,4-tetrahydroquinoline-1-carbonyl)benzenesulfonamide]
58%	CC1Cc2ccccc2N1S(=O)(=O)c1cccc(C(=O)Nc2ccc(Oc3ccccc3)cc2)c1 (stereo not shown) [I-483, 3-((2-methylindolin-1-yl)sulfonyl)-N-(4-phenoxyphenyl)benzamide]
58%	CC1Cc2ccccc2N1S(=O)(=O)c1cccc(C(=O)Nc2cccc3cccnc23)c1 (stereo not shown) [I-484, 3-((2-methylindolin-1-yl)sulfonyl)-N-(quinolin-8-yl)benzamide]
58%	O=C(c1cccc(S(=O)(=O)N2CCCc3ccccc32)c1)N1CCc2ccccc21 [I-485, (3-((3,4-dihydroquinolin-1(2H)-yl)sulfonyl)phenyl)(indolin-1-yl)methanone]
58%	C=CCN(c1ccc(Cl)cc1)S(=O)(=O)c1ccc(Cl)c(C(=O)N2CCc3ccccc32)c1 [I-486, N-allyl-4-chloro-N-(4-chlorophenyl)-3-(indoline-1-carbonyl)benzenesulfonamide]
58%	CC1Cc2ccccc2N1S(=O)(=O)c1cccc(C(=O)Nc2cccc(Oc3ccccc3)c2)c1 (stereo not shown) [I-487, 3-((2-methylindolin-1-yl)sulfonyl)-N-(3-phenoxyphenyl)benzamide]
58%	O=C(Nc1cc(F)ccc1F)c1cccc(S(=O)(=O)N2CCc3ccccc32)c1 [I-488, N-(2,5-difluorophenyl)-3-(indolin-1-ylsulfonyl)benzamide]
58%	Cc1cccc(NS(=O)(=O)c2ccc(C)c(C(=O)N3CCCc4ccccc43)c2)c1 [I-489, 4-methyl-3-(1,2,3,4-tetrahydroquinoline-1-carbonyl)-N-(m-tolyl)benzenesulfonamide]
58%	O=C(c1cc(S(=O)(=O)Nc2ccc(Cl)cc2)ccc1Cl)N1CCc2ccccc21 [I-490, 4-chloro-N-(4-chlorophenyl)-3-(indoline-1-carbonyl)benzenesulfonamide]
58%	Cc1cccc(NS(=O)(=O)c2cccc(C(=O)Nc3ccc(Br)c(C)c3)c2)c1 [I-491, N-(4-bromo-3-methylphenyl)-3-(N-(m-tolyl)sulfamoyl)benzamide]
58%	O=C(Nc1ccccc1N1CCCC1)c1cccc(S(=O)(=O)N2CCc3ccccc32)c1 [I-492, 3-(indolin-1-ylsulfonyl)-N-(2-(pyrrolidin-1-yl)phenyl)benzamide]
